Results on 19 compounds are retold here after ChEMBL document CHEMBL1212833, “Protein lysine methyltransferase G9a inhibitors: design, synthesis, and structure activity relationships of 2,4-diamino-7-aminoalkoxy-quinazolines” (J Med Chem, 2010).

The target of assay [1] is T1, Histone-lysine N-methyltransferase EHMT2 (Homo sapiens, UniProt Q96KQ7).
T1 sequence (Q96KQ7 whole entry): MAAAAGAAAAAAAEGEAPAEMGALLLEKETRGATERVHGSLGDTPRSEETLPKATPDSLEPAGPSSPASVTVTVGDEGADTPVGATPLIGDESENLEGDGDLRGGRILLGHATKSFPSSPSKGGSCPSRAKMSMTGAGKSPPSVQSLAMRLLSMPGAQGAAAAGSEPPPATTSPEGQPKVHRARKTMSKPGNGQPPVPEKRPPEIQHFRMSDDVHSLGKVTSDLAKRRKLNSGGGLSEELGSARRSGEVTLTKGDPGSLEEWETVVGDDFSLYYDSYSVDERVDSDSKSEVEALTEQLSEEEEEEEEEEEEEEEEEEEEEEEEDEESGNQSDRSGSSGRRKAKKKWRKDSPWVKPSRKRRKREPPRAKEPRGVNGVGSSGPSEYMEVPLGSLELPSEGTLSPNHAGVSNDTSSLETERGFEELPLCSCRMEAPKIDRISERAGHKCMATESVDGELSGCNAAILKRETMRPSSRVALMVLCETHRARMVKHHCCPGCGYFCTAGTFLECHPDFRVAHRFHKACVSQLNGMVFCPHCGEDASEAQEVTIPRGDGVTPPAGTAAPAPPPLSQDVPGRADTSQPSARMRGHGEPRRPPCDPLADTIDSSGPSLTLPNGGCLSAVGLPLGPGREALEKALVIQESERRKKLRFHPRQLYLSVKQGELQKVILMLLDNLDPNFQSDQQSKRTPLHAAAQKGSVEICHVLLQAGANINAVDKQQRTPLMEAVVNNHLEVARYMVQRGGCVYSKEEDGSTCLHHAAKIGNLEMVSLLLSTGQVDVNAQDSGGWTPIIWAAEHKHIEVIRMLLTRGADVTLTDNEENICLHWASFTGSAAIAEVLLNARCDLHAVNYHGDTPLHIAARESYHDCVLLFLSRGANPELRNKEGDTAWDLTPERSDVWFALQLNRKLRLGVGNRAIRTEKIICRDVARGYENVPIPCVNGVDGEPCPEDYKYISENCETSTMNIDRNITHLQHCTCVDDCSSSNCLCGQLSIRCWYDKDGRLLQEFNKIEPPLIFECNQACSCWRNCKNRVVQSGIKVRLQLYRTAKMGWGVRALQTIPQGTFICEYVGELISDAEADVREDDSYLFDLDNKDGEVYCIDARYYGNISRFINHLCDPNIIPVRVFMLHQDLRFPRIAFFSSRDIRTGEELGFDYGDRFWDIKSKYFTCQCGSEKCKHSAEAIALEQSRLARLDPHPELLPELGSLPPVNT
As to the kind of experiment: Activity at methyl transferase activity G9a by enzyme coupled S-adenocylehomocystein detection assay.

In assay [2] the target is T1, Histone-lysine N-methyltransferase EHMT2. Description: Inhibition of methyl transferase activity of G9a assessed as inhibition of H3K9 methylation by chemiluminescence based oxygen tunneling assay.
Assay [3] has as its target T2, N-lysine methyltransferase KMT5A (Homo sapiens, UniProt Q9NQR1).
T2 sequence (Q9NQR1 whole entry): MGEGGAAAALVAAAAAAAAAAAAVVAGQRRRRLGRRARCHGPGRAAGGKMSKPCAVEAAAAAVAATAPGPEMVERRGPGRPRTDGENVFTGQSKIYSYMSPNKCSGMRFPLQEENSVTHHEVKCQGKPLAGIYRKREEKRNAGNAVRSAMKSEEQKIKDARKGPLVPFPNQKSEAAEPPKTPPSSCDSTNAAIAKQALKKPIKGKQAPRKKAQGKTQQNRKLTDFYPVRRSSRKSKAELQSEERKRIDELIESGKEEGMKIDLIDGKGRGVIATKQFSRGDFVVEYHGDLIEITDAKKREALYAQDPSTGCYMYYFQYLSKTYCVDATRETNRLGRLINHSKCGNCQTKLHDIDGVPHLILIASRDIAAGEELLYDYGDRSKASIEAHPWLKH
Description: Activity at methyl transferase activity SET8/preSet7 by enzyme coupled S-adenocylehomocystein detection assay.

Assay [4] concerns the target T3, Histone-lysine N-methyltransferase EHMT1 (Homo sapiens, UniProt Q9H9B1).
T3 sequence (Q9H9B1 whole entry): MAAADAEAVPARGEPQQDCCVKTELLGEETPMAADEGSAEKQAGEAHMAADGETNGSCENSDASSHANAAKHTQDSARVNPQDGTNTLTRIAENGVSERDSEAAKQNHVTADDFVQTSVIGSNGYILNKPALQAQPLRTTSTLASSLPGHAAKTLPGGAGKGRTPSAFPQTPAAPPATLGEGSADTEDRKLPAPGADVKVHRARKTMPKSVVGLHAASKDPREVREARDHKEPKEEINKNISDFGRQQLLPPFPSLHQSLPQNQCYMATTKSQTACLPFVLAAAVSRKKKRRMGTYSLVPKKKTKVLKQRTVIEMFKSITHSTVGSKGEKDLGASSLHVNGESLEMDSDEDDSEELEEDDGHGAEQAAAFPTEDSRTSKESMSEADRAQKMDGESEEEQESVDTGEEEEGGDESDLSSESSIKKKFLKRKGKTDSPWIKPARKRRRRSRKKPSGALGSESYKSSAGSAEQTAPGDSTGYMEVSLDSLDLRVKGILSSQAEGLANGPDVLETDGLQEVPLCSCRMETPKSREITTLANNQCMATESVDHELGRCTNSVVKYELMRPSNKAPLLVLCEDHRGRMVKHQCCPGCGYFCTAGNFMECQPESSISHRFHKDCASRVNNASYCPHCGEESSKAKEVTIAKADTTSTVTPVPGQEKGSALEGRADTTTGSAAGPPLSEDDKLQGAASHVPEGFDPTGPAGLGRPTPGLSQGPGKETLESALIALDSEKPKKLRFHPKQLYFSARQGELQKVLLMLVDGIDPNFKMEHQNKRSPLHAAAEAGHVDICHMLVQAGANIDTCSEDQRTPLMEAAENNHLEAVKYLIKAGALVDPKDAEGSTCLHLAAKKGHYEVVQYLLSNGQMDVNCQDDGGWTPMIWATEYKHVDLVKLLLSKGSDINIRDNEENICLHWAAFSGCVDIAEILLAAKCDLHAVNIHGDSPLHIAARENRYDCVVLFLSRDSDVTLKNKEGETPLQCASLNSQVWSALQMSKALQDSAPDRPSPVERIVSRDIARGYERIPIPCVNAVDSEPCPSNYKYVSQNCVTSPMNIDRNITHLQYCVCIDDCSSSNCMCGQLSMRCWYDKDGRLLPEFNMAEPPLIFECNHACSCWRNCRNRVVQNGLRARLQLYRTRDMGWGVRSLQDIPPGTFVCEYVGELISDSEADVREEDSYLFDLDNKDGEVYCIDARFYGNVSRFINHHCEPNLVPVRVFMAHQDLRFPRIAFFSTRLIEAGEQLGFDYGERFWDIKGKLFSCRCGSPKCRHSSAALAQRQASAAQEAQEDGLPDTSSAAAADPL
As to the kind of experiment: Activity at methyl transferase activity GLP by chemiluminescence based oxygen tunneling assay.

For assay [5], the target named is T4, Histone-lysine N-methyltransferase SETD7 (Homo sapiens, UniProt Q8WTS6).
T4 sequence (Q8WTS6 whole entry): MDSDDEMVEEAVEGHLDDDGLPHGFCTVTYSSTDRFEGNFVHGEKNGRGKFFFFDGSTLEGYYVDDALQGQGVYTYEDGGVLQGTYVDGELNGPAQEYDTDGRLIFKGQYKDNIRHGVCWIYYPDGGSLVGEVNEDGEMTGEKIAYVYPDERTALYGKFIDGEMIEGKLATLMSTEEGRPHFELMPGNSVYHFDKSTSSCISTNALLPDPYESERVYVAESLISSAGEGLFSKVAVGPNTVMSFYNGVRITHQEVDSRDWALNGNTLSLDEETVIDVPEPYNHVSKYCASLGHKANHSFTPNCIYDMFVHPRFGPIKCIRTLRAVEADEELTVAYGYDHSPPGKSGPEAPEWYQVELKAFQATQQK
Description: Activity at methyl transferase activity SET7/9 by enzyme coupled S-adenocylehomocystein detection assay.

The target in assay [6] is Protein arginine N-methyltransferase 3 (Homo sapiens, UniProt O60678). As to the kind of experiment: Activity at methyl transferase activity PRMT3 by enzyme coupled S-adenocylehomocystein detection assay.
Assay [7] addresses T3, Histone-lysine N-methyltransferase EHMT1. Description: Activity at methyl transferase activity GLP by enzyme coupled S-adenocylehomocystein detection assay.
Assay [8] can be described thus: Activity at methyl transferase activity JMJD2E by formaldehyde dehydrogenase-coupled assay.

Protein arginine N-methyltransferase 3, sequence (O60678 whole entry): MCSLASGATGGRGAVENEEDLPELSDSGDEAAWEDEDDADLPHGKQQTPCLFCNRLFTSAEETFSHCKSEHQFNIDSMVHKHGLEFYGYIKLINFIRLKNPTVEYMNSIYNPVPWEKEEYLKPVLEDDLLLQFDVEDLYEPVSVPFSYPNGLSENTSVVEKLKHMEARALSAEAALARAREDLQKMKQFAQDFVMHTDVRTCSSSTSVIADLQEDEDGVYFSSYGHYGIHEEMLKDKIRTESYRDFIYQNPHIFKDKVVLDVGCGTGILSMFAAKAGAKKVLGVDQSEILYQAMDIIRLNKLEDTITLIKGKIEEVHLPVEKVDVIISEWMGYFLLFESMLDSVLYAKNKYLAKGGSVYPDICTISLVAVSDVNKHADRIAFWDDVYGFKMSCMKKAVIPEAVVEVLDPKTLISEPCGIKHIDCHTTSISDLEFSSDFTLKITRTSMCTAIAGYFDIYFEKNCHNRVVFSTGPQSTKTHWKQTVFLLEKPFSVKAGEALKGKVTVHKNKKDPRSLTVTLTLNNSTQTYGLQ

By IC50 is commonly meant the point on the concentration scale where inhibition reaches its midpoint. For `COc1cc2c(NC3CCN(C)CC3)nc(N3CCCN(C)CC3)nc2cc1OCCCCCN`, the IC50 came to 235 nM in assay [1] and 110 nM in assay [2]. Regarding `COc1cc2c(NC3CCN(C)CC3)nc(N3CCCN(C)CC3)nc2cc1OCCOCCN(C)C`, the 50% inhibitory concentration (IC50) in assay [2] was 6 nM; in assay [3] it was above 40000 nM; in assay [4] it was 23 nM; in assay [5] it was above 40000 nM; in assay [6], above 40000 nM; in assay [7] it was 15 nM. The compound also came in with a half-inhibitory concentration (IC50) in assay [8] above 57000 nM.

In the case of `CNCCCOc1cc2nc(N3CCCN(C)CC3)nc(NC3CCN(C)CC3)c2cc1OC`, in assay [1], the midpoint of inhibition, the IC50, lay at 120 nM.

With `COc1cc2c(NC3CCN(C)CC3)nc(N3CCCN(C)CC3)nc2cc1OCC1CCCNC1` (centres undefined), the IC50 in assay [1] came out at 1500 nM; in assay [2], 5100 nM. Taken in the same sequence, the figures for `COc1cc2c(NC3CCN(C)CC3)nc(N3CCCN(C)CC3)nc2cc1OCCN(C)CCN(C)C` were 345 nM and 173 nM. For `CCCN(C)CCCOc1cc2nc(N3CCCN(C)CC3)nc(NC3CCN(C)CC3)c2cc1OC`, inhibition in assay [1] was half-maximal at 51 nM (IC50). With `CNc1nc(N2CCCN(C)CC2)nc2cc(OC)c(OC)cc12`, the IC50 in assay [2] is above 10000 nM. As for `COc1cc2c(NC3CCN(C)CC3)nc(N3CCCN(C)CC3)nc2cc1OCCOCCN1CCCC1`, the 50% inhibitory concentration (IC50) turned out to be 57 nM in assay [1] and 110 nM in assay [2]. In the case of `COc1cc2c(NC3CCN(C)CC3)nc(N3CCCN(C)CC3)nc2cc1OCCCN1CCOCC1`, the IC50 in assay [1] was 880 nM; in assay [2], 780 nM. For the compound `COc1cc2nc(N3CCCN(C)CC3)nc(N(C)C3CCN(C)CC3)c2cc1OC`, the IC50 in assay [2] is above 10000 nM. On the same count and under the same terms, to `COc1cc2c(NC3CCN(C)CC3)nc(N3CCCN(C)CC3)nc2cc1OCCCCC(N)=O` belongs above 10000 nM; to `COc1cc2c(NC3CCN(C)CC3)nc(N3CCCN(C)CC3)nc2cc1OCCCCNC(=O)OC(C)(C)C`, above 10000 nM. Turning to `CCN(CC)CCCOc1cc2nc(N3CCCN(C)CC3)nc(NC3CCN(C)CC3)c2cc1OC`, in assay [1], the midpoint of inhibition, the IC50, lay at 52 nM. The same measure, in the same setting: with `COc1cc2nc(N3CCCN(C)CC3)nc(NC3CCN(C)C3)c2cc1OC` (centres undefined) the figure was 910 nM. Regarding `COCCCCOc1cc2nc(N3CCCN(C)CC3)nc(NC3CCN(C)CC3)c2cc1OC`, the IC50 in assay [2] is above 10000 nM. Consider `COc1cc2c(NC3CCN(C)CC3)nc(N3CCCN(C)CC3)nc2cc1OCCCCN(C)C`, for which the IC50 in assay [1] is 140 nM; in assay [2] it was 110 nM. For the compound `COc1cc2nc(N3CCCN(C)CC3)nc(OC3CCN(C)CC3)c2cc1OC`, in assay [2], the IC50 is above 10000 nM. Regarding `COc1cc2c(NC3CCN(C)CC3)nc(N3CCCN(C)CC3)nc2cc1OCCCN(C)C`, the IC50 in assay [3] is above 40000 nM; in assay [5], above 40000 nM; in assay [6] it was above 40000 nM; in assay [8], above 57000 nM.

Consider `COc1cc2c(NC3CCN(C)CC3)nc(N3CCCN(C)CC3)nc2cc1OCCCCCN(C)C`, for which 95 nM corresponded to half-maximal inhibition in assay [1] (IC50).
